How the values were obtained:
breast cancer cell lines [1] = test system: breast cancer cell lines
breast cancer cell lines [2] = experiment: expression of HERV-K and signaling proteins after H2O2 or paclitaxel; format: cell-based, human; settings: for expression of signaling proteins by immunoblot: paclitaxel (Tax, 0.1 μM) or H2O2 (5 μM or 10 μM), vs parent cells
[3] = test system: HCT15, SW48 and HCT116 cells; experiment: HERV-K expression in CRC cell lines; format: cell-based
From the text: The expression of HERV-K was detected in several CRC cell lines and tissues, but not in benign colon tissues. […] The forced overexpression of HERV-K with these agents that induce expression of HERV-K by innate immune response (Poly I:C treatment) or LTR hypomethylation (5-Aza) would provoke the cancer cells to increase production of a target that would make them more susceptible to targeted therapy to include targeted immunotherapy.

[4] = test system: MDA-MB-231, Hs578T, and MCF-7 breast cancer cells; experiment: proliferation and drug sensitivity of breast cancer cells after HERV-K KD; format: cell-based, human; settings: for sensitivity of breast cancer cells toward drug: MCF-7 and Hs578T stably transduced with shRNAenv vs shRNAc or parent cells
From the text: Here, the inventors further determined the effects of HERV-K env gene KD in breast cancer cells treated with breast cancer chemotherapy drugs.

[5] = test system: MCF-7, HS578T, MDA-MB-231 cells; experiment: transwell migration and invasion; format: cell-based, human; parameters: dose or concentration left out as unconfirmed
Protocol: The effects of KD of HERV-K env on migration and invasion were investigated using transwell plates. After transwell plates (8 μm) were rehydrated for 2 hours, 2.5×10^4 cells were seeded into the transwell and cultured. The transwell was then removed and the cells that had migrated into the lower chamber were counted. For the invasion assay, transwells were coated with Matrigel, and cells remaining in the upper chamber were removed with a cotton swab. The invaded cells on the reverse side of the Matrigel were counted under a light microscope (40× magnification) after the cells were fixed with methanol and stained with Giemsa. Ten random fields were counted. The average number of invaded cells per field was presented as mean±SD (n=10 fields). Triplicate assays were performed for each experiment.

[6] = test system: MCF-7 and Hs578T breast cancer cell lines; experiment: cell cycle distribution by FACS; format: cell-based, human; settings: Hs578T cells, especially in the shRNAenv cells
4T1pLVXKenv tumors = experiment: 4T1pLVXKenv combination treatment, Treg cells; format: in vivo, mouse; settings: pLVXKenv vs pLVX; 6H5 once, IL2 for five days
Protocol: BALB/c mice were inoculated with 3×10^5 4T1pLVXKenv or 4T1pLVX cells on day 0. These mice were then treated: FIG. 23B with CpG (1.24 nmol), HERV-K SU protein (10 μg, 20 μg, and 20 μg), or CpG+ HERV-K SU protein on days 6, 13, and 19. Tumor weights were compared at week 4 post tumor cell inoculation; (FIG. 23C) with Aza (0.5 mg/kg) daily for five days in two weekly cycles, anti-PD-1 (200 μg per mouse every four days; four treatments), or Aza+anti-PD-1. Mice treated with PBS were used as controls, and tumor weights were compared among groups; and (FIG. 23D) with anti-HERV-K antibody (6H5; once) and with IL2 (for five days).

MDA-MB-231 cells = experiment: Live/dead cell viability assay; format: cell-based, human; settings: 10 μg/ml, sixteen hours
Protocol: Live/dead cell viability assays were used to assess induction of cell death after anti-HERV-K antibody treatment. MDA-MB-231 cells were seeded overnight in 24-well plates. Cells were treated with various antibodies (10 μg/ml) and incubated for sixteen hours at 37C in a cell culture incubator. Calcein Am (4 μl/10 ml media) and Eth-D1 (20 μl/10 ml media), 200 μl per well, were then added and cells were incubated for thirty minutes at room temperature. EthD-1 penetrates cells with membrane damage and binds to nucleic acids to produce red fluorescence in dead cells. Live cells (green color; Calcein Am) and putative dead cells (red color; EthD-1) were identified using the co-stained Live/Dead Viability Assay. Human IgG or mouse IgG were used control.

[7] = test system: ERVK6 and HERV-K envelope surface fusion protein; experiment: immunoblot on HERV-K Env surface proteins; format: binding, human
[8] = test system: HERV-K envelope surface fusion protein; experiment: ELISA binding to HERV-K envelope surface fusion protein; parameters: species or system human
From the text: An ELISA assay was used to compare antigen binding sensitivity and specificity of hu6H5 vs. m6H5.

HERV-K env protein = experiment: antibody internalization; format: cell-based; settings: 37° C., 0, 5, 30, and 45 minutes; permeabilized cells
Protocol: To determine antibody internalization of humanized and murine antibodies, cells were incubated with HUM1 or m6H5 at 37° C. for different time intervals (0, 5, 30, and 45 minutes). At each time point, cells were fixed. Half of the cells were permeabilized and half were not permeabilized. Anti-human IgG 488 or anti-mouse IgG 488 was used to detect the percentages of antibody-bound HERV-K env protein that remained on the cell surface in the cells that were not permeabilized. A reduced surface expression of HERV-K positive cells was observed. The internalization of rate was determined in the cells that were permeabilized. The equation for the percentage of internalization at each point was 100−(% label at time 0).

OO [H2O2, Hydrogen Peroxide]
cell proliferation (breast cancer cell lines [1]; 5 μM, after 96 hours): Significantly increased cell proliferation
migration (breast cancer cell lines [1]; after 48 hours for MDA-MB-231 and after 72 hours for MCF-7): increased migration
effect on shRNAenv-induced block in expression (breast cancer cell lines [2]; 5 μM, HERV-K KD cells): reversed the shRNAenv-induced block in expression of HERV-K, HIF-1α, P-RSK, and P-ERK in a time-dependent manner
expression at elevated concentrations (breast cancer cell lines [2]; 25 μM and 50 μM): decreased expression of HERV-K and corresponding decreased HIF-1a and Ras/ERK signaling
protein expression at graded concentrations (breast cancer cell lines [2]; 1-50 μM, three breast cancer cell lines): enhanced expression of HERV-K, Ras, p-ERK, and HIF-1a proteins at H2O2 concentrations of 5 μM and 10 μM
expression of HERV-K mRNA (breast cancer cell lines [2]; 5 M, 0 hours to 48 hours, three breast cancer cell lines): elevated expression of HERV-K mRNA
expression of HERV-K, p-MEK, and p-ERK by immunoblot (breast cancer cell lines [2]; 18 hours): enhanced expression of HERV-K, p-MEK, and p-ERK
expression of EMT markers (breast cancer cell lines [2]; MDA-MB-231 cells): Increased expression of EMT markers including N-cadherin, vimentin, and Slug, and decreased expression of E-Cadherin
expression of signaling proteins by immunoblot (breast cancer cell lines [2]): increased expression of the breast cancer relevant signaling proteins HIF-1α, HERV-K, p-RSK, p-ERK, ERK, and Ras

Nc1ncn([C@@H]2O[C@H](CO)[C@@H](O)[C@H]2O)c(=O)n1 [5-Azacytidine]
expression of HERV-K [3]: Increased expression of HERV-K

COc1cccc2c1C(=O)c1c(O)c3c(c(O)c1C2=O)C[C@@](O)(C(=O)CO)C[C@@H]3O[C@H]1C[C@H](N)[C@H](O)[C@H](C)O1 [doxorubicin]
sensitivity of breast cancer cells toward drug [4]: Enhanced sensitivity

CC(=O)O[C@H]1C(=O)[C@@]2(C)[C@H]([C@H](OC(=O)c3ccccc3)[C@]3(O)C[C@H](OC(=O)[C@H](O)[C@@H](NC(=O)c4ccccc4)c4ccccc4)C(C)=C1C3(C)C)[C@]1(OC(C)=O)CO[C@@H]1C[C@@H]2O [paclitaxel]
migration and invasion [5]: Significantly reduced migration and invasion
sensitivity of breast cancer cells toward drug [4]: Enhanced sensitivity
cell proliferation ([4]; cells with HERV-K env KD by shRNAenv vs parent cells or shRNAc): Significantly reduced cell proliferation
cell cycle arrest [6]: G2 arrest
expression of signaling proteins by immunoblot (breast cancer cell lines [2]): increased expression of the breast cancer relevant signaling proteins HIF-1α, HERV-K, p-RSK, p-ERK, ERK, and Ras

Poly I:C
expression of HERV-K [3]: Increased expression of HERV-K

B1: m6H5: murine anti-HERV-K monoclonal antibody (antibody, V domains shown)
VH: QVKLQQSGPDLVKPGASVKISCKASGYSFTGYYMHWVKQSHGKSLEWIGRVNPNSGGTSYNQKFKDKAILTVDKSSSTAYMELRSLTSEDSAVYYCARSKGNYFYAMDYWGQGTTVTVSS
VL: DIELTQSPASLAVSLGQRATISCRASESVDSHGTSFMHWYQQKPGQPPKFLIYRASNLESGIPARFSGSGSRTDFTLTINPVETDDVAIYYCQQSNEDPPTFGGGTKLEIK
T regulatory (Treg) cells (4T1pLVXKenv tumors): Significantly decreased T regulatory (Treg) cells
dead cells (red fluorescence, EthD-1) (MDA-MB-231 cells): red fluorescent cells were observed
binding by immunoblot to two HERV-K Env surface proteins [7]: shown by immunoblot to bind
binding detected by the inventors using ELISA or Western blot assays [8]: readily detected
internalized HERV-K positive cells (HERV-K env protein): increased expression of internalized HERV-K positive cells

Reference: patent publication US20250145693A1, “HERV-K ANTIBODY, CELL, VACCINE, AND DRUG THERAPEUTICS” (priority 2021, published 2025)
